This note sets out measurements from patent US8883963B2 (Cadila Healthcare Limited, priority 2007, dated 2014).

This test relates to RIN5F (Rat Insulinoma) cells. The experiment in a line: In vitro glucose-dependent insulin secretion (RIN5F cell assay screening protocol). It is filed as cell-based. Conditions: 16.7 mM glucose load. On the procedure:
RIN5F (Rat Insulinoma) cells were cultured in RPMI 1640 medium supplemented with sodium pyruvate (1 mM) HEPES and Glucose (4.5 g/L) in a humidified incubator (5% CO2), at 37° C. After trypsinization, RIN5F cells were seeded at a concentration of 0.2×10^6 cells per well, in 12 well plates.
The buffer was replaced after 40 min. and the cells were incubated (37° C.) with the test peptidomimetics, at different concentration, for 30 min., both in the presence (16.7 mM) and absence (0 mM) of glucose load. The supernatant was collected and the insulin amount was measured by ultra sensitive Rat insulin ELISA kit (Crystal Chem, IL). The protein was estimated in the supernatant using Bicinchoninic Acid kit, according to the manufacturer's protocol (Sigma Aldrich, MO). The total insulin content obtained in Pico-gram (pg) was divided with the total protein (μg) in order to normalize for differences in cell density between wells.

Starred links: 1 amine or outer side, 2 acyl side, 3 side chain; linkers in the order of their positions; H or OH if unused. Non-standard residues stand in square brackets, D forms with d. Residues, ends and D or L forms follow the SMILES beside them. ξ: configuration not given here. ξBip(2'-Et-4'-OMe) = CCc1cc(OC)ccc1-c1ccc(CC(N)C(=O)O)cc1; X10 = O=C(C(CCCc1ccc(F)cc1F)N[*:1])[*:2]; ξbishPhe(2-F) = NC(CCCc1ccccc1F)C(=O)O; ξαMePhe(2-F) = CC(N)(Cc1ccccc1F)C(=O)O; aThr = C[C@H](O)[C@H](N)C(=O)O; ξhhPhe = NC(CCCc1ccccc1)C(=O)O; Ac5c = NC1(C(=O)O)CCCC1; Aib = CC(C)(N)C(=O)O

In turn, `CCc1cc(OC)ccc1-c1ccc(CC(NC(=O)[C@H](CC(=O)O)NC(=O)[C@H](CO)NC(=O)[C@@H](NC(=O)C(C)(Cc2ccccc2F)NC(=O)[C@@H](NC(=O)CNC(=O)[C@H](CCC(N)=O)NC(=O)C(C)(C)NC(=O)[C@@H](N)Cc2c[nH]cn2)[C@H](C)O)[C@@H](C)O)C(=O)NC(CCCc2ccccc2)C(N)=O)cc1` (stereo partly drawn) [compound 109] (H-H[Aib]QG[aThr][ξαMePhe(2-F)]TSD[ξBip(2'-Et-4'-OMe)][ξhhPhe]-NH2) had an Insulin secretion (0.1 nM test compd.) of 12.6 ± 0.25 pg/µg/h, an Insulin secretion (1 nM test compd.) of 15.3 ± 0.31 pg/µg/h and an Insulin secretion (10 nM test compd.) of 29.7 ± 0.48 pg/µg/h.

On to `CCc1cc(OC)ccc1-c1ccc(CC(NC(=O)[C@H](CC(=O)O)NC(=O)[C@H](CO)NC(=O)[C@@H](NC(=O)[C@H](Cc2ccccc2)NC(=O)[C@@H](NC(=O)CNC(=O)[C@H](CCC(N)=O)NC(=O)[C@H](CO)NC(=O)[C@@H](N)Cc2c[nH]cn2)[C@@H](C)O)[C@@H](C)O)C(=O)NC(CCCc2ccc(F)cc2F)C(N)=O)cc1` (stereo partly drawn) [compound 46] (H-HSQGTFTSD[ξBip(2'-Et-4'-OMe)][X10]-NH2), for which the Insulin secretion is, setting by setting: (0.1 nM test compd.) 12.7 ± 0.21 pg/µg/h; (1 nM test compd.) 15.8 ± 0.33 pg/µg/h; (10 nM test compd.) 29.3 ± 0.19 pg/µg/h.

For `CCc1cc(OC)ccc1-c1ccc(CC(NC(=O)[C@H](CC(=O)O)NC(=O)[C@H](CO)NC(=O)[C@@H](NC(=O)C(C)(Cc2ccccc2F)NC(=O)[C@@H](NC(=O)CNC(=O)[C@H](CCC(N)=O)NC(=O)C(C)(C)NC(=O)[C@H](Cc2c[nH]cn2)NC(C)=O)[C@H](C)O)[C@H](C)O)C(=O)NC(CCCc2ccccc2)C(N)=O)cc1` (single isomer, unassigned) [compound 101], the Insulin secretion is 12.4 ± 0.22 pg/µg/h (0.1 nM test compd.), 15.2 ± 0.32 pg/µg/h (1 nM test compd.) and 29.6 ± 0.50 pg/µg/h (10 nM test compd.).

For `CCc1cc(OC)ccc1-c1ccc(CC(NC(=O)[C@H](CC(=O)O)NC(=O)[C@H](CO)NC(=O)[C@@H](NC(=O)C(C)(Cc2ccccc2F)NC(=O)[C@@H](NC(=O)CNC(=O)[C@H](CC(C(F)(F)F)C(F)(F)F)NC(=O)C(C)(C)NC(=O)[C@@H](N)Cc2c[nH]cn2)[C@@H](C)O)[C@@H](C)O)C(=O)NC(CCCc2cc(C)cc(C)c2)C(N)=O)cc1` (single isomer, unassigned) [compound 235], the Insulin secretion stood at 12.6 ± 0.25 pg/µg/h (0.1 nM test compd.), 15.3 ± 0.31 pg/µg/h (1 nM test compd.) and 29.7 ± 0.48 pg/µg/h (10 nM test compd.).

For the compound `CCc1cc(OC)ccc1-c1ccc(CC(NC(=O)[C@H](CC(=O)O)NC(=O)[C@H](CO)NC(=O)[C@@H](NC(=O)[C@H](Cc2ccccc2)NC(=O)[C@@H](NC(=O)CNC(=O)[C@H](CCC(N)=O)NC(=O)C2(NC(=O)[C@@H](N)Cc3c[nH]cn3)CCCC2)[C@@H](C)O)[C@@H](C)O)C(=O)NC(CCCc2ccccc2)C(N)=O)cc1` (stereo partly drawn) [compound 25] (H-H[Ac5c]QGTFTSD[ξBip(2'-Et-4'-OMe)][ξhhPhe]-NH2), the Insulin secretion stood at 15.6 ± 0.30 pg/µg/h (0.1 nM test compd.), 21.8 ± 0.11 pg/µg/h (1 nM test compd.) and 35.6 ± 0.20 pg/µg/h (10 nM test compd.).

Regarding `CCc1cc(OC)ccc1-c1ccc(CC(NC(=O)[C@H](CC(=O)O)NC(=O)[C@H](CO)NC(=O)[C@@H](NC(=O)C(C)(Cc2ccccc2F)NC(=O)[C@@H](NC(=O)CNC(=O)[C@H](CCC(N)=O)NC(=O)C(C)(C)NC(=O)[C@@H](N)Cc2c[nH]cn2)[C@@H](C)O)[C@@H](C)O)C(=O)NC(CCCc2ccccc2F)C(N)=O)cc1` (stereo partly drawn) [compound 85] (H-H[Aib]QGT[ξαMePhe(2-F)]TSD[ξBip(2'-Et-4'-OMe)][ξbishPhe(2-F)]-NH2), the Insulin secretion by setting is: (0.1 nM test compd.) 11.9 ± 0.17 pg/µg/h; (1 nM test compd.) 14.2 ± 0.13 pg/µg/h; (10 nM test compd.) 27.6 ± 0.16 pg/µg/h.
